Read-outs that look alike come from different tables or passages of the source. Each block holds one compound with its values, some of them ahead of it.
How the values were obtained:
Assay type in all cases: cell-based
[1] = test system: Proteus inconstans 1708; assay: Synergistic action with Cephaloridine (MIC)
Description: (§1) (13) Synergistic action: Synergistic action of the substance No. 17927A2 having 0.23 μg/ml of I50 (50% Inhibitory concentration) against β-lactamase produced from Proteus morganii with Cephaloridine or Ampicillin are summarized in Tables 6 and 7.
(§2) (13) Synergistic action: Synergistic action of the substance No. 17927A1 having 0.27 μg/ml of I50 (50% Inhibitory concentration) against β-lactamase produced from Proteus morganii with Cephaloridine are summarized in Table 10.

[2] = test system: Klebsiella pneumoniae 847; assay: Synergistic action with Cephaloridine (MIC)
Description: as §1, §2

[3] = test system: Proteus rettgeri 1603; assay: Synergistic action with Ampicillin or Cephaloridine (MIC)
Description: as §1, §2

[4] = test system: Escherichia coli 609; assay: Synergistic action with Cephaloridine (MIC)
Description: as §2

[5] = test system: Proteus morganii 1510; assay: Synergistic action with Cephaloridine (MIC)
Description: as §2

[6] = test system: Proteus mirabilis 1332; assay: Synergistic action with Cephaloridine (MIC)
Description: as §2

[7] = test system: Escherichia coli 640; assay: Synergistic action with Ampicillin (MIC)
Description: as §1

[8] = test system: Escherichia coli 718; assay: Synergistic action with Ampicillin (MIC)
Description: as §1

[9] = No. 17927A1 coexisted 0.1 μg/ml
[10] = No. 17927A1 coexisted 0.4 μg/ml
[11] = No. 17927A2 coexisted 0.1 μg/ml

Structure (SMILES): O=C(Cc1cccs1)N[C@@H]1C(=O)N2C(C(=O)[O-])=C(C[n+]3ccccc3)CS[C@H]12 [Cephaloridine]
MIC, Cephaloridine with No. 17927A1 coexisted [1, 9]: 6.25 µg/mL
MIC, Cephaloridine with No. 17927A1 coexisted [1, 10]: 3.13 µg/mL
MIC, Cephaloridine with No. 17927A2 coexisted [1, 11]: 12.5 µg/mL
MIC ([1]; Providencia alcalifaciens, 1708, read-out: MIC, Cephaloridine alone): 1600 µg/mL
MIC ([2]; Klebsiella pneumoniae, 847, read-out: MIC, Cephaloridine alone): 100 µg/mL
MIC, Cephaloridine with No. 17927A1 coexisted [2, 9]: 12.5 µg/mL
MIC, Cephaloridine with No. 17927A1 coexisted [2, 10]: 12.5 µg/mL
MIC, Cephaloridine with No. 17927A2 coexisted [2, 11]: 12.5 µg/mL
MIC, Cephaloridine with No. 17927A1 coexisted [3, 9]: 50 µg/mL
MIC, Cephaloridine with No. 17927A1 coexisted [3, 10]: 25 µg/mL
MIC ([3]; Providencia rettgeri, 1603, read-out: MIC, Cephaloridine alone): 1600 µg/mL
MIC ([4]; Escherichia coli, 609, read-out: MIC, Cephaloridine alone): 100 µg/mL
MIC, Cephaloridine with No. 17927A1 coexisted [4, 9]: 100 µg/mL
MIC, Cephaloridine with No. 17927A1 coexisted [4, 10]: 50 µg/mL
MIC ([5]; Morganella morganii, 1510, read-out: MIC, Cephaloridine alone): 1600 µg/mL
MIC, Cephaloridine with No. 17927A1 coexisted [5, 9]: 50 µg/mL
MIC, Cephaloridine with No. 17927A1 coexisted [5, 10]: 50 µg/mL
MIC, Cephaloridine with No. 17927A1 coexisted [6, 9]: 50 µg/mL
MIC, Cephaloridine with No. 17927A1 coexisted [6, 10]: 50 µg/mL
MIC ([6]; Proteus mirabilis, 1332, read-out: MIC, Cephaloridine alone): 100 µg/mL

MIC ([7]; Escherichia coli, 640, read-out: MIC, Ampicillin alone): 25 µg/mL
MIC, Ampicillin with No. 17927A2 coexisted [7, 11]: 1.56 µg/mL
MIC ([8]; Escherichia coli, 718, read-out: MIC, Ampicillin alone): 800 µg/mL
MIC, Ampicillin with No. 17927A2 coexisted [8, 11]: 25 µg/mL
MIC, Ampicillin with No. 17927A2 coexisted [3, 11]: 50 µg/mL
MIC ([3]; Providencia rettgeri, 1603, read-out: MIC, Ampicillin alone): 100 µg/mL
Structure (SMILES): CC1(C)S[C@@H]2[C@H](NC(=O)[C@H](N)c3ccccc3)C(=O)N2[C@H]1C(=O)O [Ampicillin]

Source: patent US4201769A, “Antibiotic substances No. 17927A1 and No. 17927A2 and process for producing the same” (Sankyo Company Limited, priority 1977, dated 1980)
